Test results: ChEMBL document CHEMBL3414562, “Synthesis of isocryptolepine analogues and their structure-activity relationship studies as antiplasmodial and antiproliferative agents” (Eur J Med Chem, 2015)

Key:
[1] = tested on: MRC5; assay: Cytotoxicity against human MRC5 cells by MTT assay; type: cell-based
[2] = Selectivity index, ratio of IC50 for human MRC5 cells to IC50 for chloroquine-resistant Plasmodium falciparum K1; type: toxicity, cell-based; conditions: read-out: Ratio IC50
[3] = Selectivity index, ratio of IC50 for human MRC5 cells to IC50 for […]; type: toxicity, cell-based; conditions: read-out: Ratio IC50
[4] = Selectivity index, ratio of IC50 for human MRC5 cells to IC50 for chloroquine/mefloquine-resistant Plasmodium falciparum SKF58; type: toxicity, cell-based; conditions: read-out: Ratio IC50
[5] = Selectivity index, ratio of IC50 for human MRC5 cells to IC50 for chloroquine/mefloquine-resistant Plasmodium falciparum SRIV35; type: toxicity, cell-based; conditions: read-out: Ratio IC50
[6] = tested on: HepG2; assay: Cytotoxicity against human HepG2 cells by MTT assay; type: functional, cell-based
[7] = Cytotoxicity against human HuCCa1 cells by MTT assay; type: functional, cell-based; conditions: HuCC-A1
[8] = Cytotoxicity against human MOLT3 cells by XTT assay; type: functional, cell-based; conditions: MOLT-3
[9] = tested on: A549; assay: Cytotoxicity against human A549 cells by MTT assay; type: functional, cell-based
[10] = Selectivity index, ratio of IC50 for human MRC5 cells to IC50 for human HuCCa1 cells; type: functional
[11] = tested on: Plasmodium falciparum; assay: microbe, parasite or virus in culture; conditions: K1
Description: Antiplasmodial activity against chloroquine-resistant Plasmodium falciparum K1

[12] = tested on: Plasmodium falciparum; assay: microbe, parasite or virus in culture; conditions: 3D7
Description: Antiplasmodial activity against chloroquine-sensitive Plasmodium falciparum 3D7

[13] = tested on: Plasmodium falciparum; assay: microbe, parasite or virus in culture; conditions: SKF58
[14] = tested on: Plasmodium falciparum; assay: microbe, parasite or virus in culture; conditions: SRIV35
[15] = tested on: MRC5; assay: Cytotoxicity against human MRC5 cells at 72014 nM by MTT assay relative to control; type: cell-based; conditions: mrc5, 72.014 µM
[16] = tested on: MRC5; assay: Cytotoxicity against human MRC5 cells at 137509 nM by MTT assay relative to control; type: cell-based; conditions: mrc5, 137.509 µM
[17] = tested on: MRC5; assay: Cytotoxicity against human MRC5 cells at 131866 nM by MTT assay relative to control; type: cell-based; conditions: mrc5, 131.866 µM
[18] = tested on: MRC5; assay: Cytotoxicity against human MRC5 cells at […] uM by MTT assay relative to control; type: cell-based; conditions: mrc5, 91.99 µM
[19] = tested on: MRC5; assay: Cytotoxicity against human MRC5 cells at 144667 nM by MTT assay relative to control; type: cell-based; conditions: mrc5, 144.667 µM

Row | SMILES | IC50 [1] [µM] | selectivity ratio [2] | selectivity ratio [3] | selectivity ratio [4] | selectivity ratio [5] | IC50 [6] [nM] | IC50 [7] [µM] | IC50 [8] [nM] | IC50 [9] [µM] | Ratio IC50 [10] | IC50 [11] [nM] | IC50 [12] [nM] | IC50 [13] [nM] | IC50 [14] [nM] | Activity [15] [%] | Activity [16] [%] | Activity [17] [%] | Activity [18] [%] | Activity [19] [%]
1 | Cc1cccc2c3nc4ccccc4c-3cn(C)c12 | 39.5 | 22.2 | 24.6 | 24.6 | 24.6 | 2600 | 16.6 | 2920 | 11.1 | 2.33 | 1740 | 1570 | 1570 | 1570 |  |  |  |  | 
2 | Cn1cc2c3ccccc3nc-2c2cc(Cl)ccc21 | 10.4 | 32.5 | 47.1 | 45.7 | 48 | 640 | 6.45 | 520 | 1.5 | 1.62 | 321 | 221 | 228 | 217 |  |  |  |  | 
3 | Cn1cc2c3cc(Cl)ccc3nc-2c2cc(Cl)ccc21 | 25.2 | 110 | 146 | 194 | 162 | 7900 | 13.2 | 930 | 30.2 | 1.9 | 228 | 172 | 130 | 156 |  |  |  |  | 
4 | Cn1cc2c3ccccc3nc-2c2cccc(Cl)c21 | 12.4 |  |  |  |  | 2620 | 21 | 1270 | 8.59 | 0.59 | > 2000 | > 2000 | > 2000 | > 2000 |  |  |  |  | 
5 | Cn1cc2c3cc(Br)ccc3nc-2c2ccc(F)c(F)c21 | > 72 | > 53.2 | > 248 | > 7.3 |  |  | 42.7 | 17400 | 25 | >1.68 | 1350 | 290 | 9860 | > 2000 | 32.6 |  |  |  | 
6 | COc1cc([C@@H]2c3cc4c(cc3[C@@H](O[C@@H]3O[C@@H]5CO[C@@H](C)O[C@H]5[C@H](O)[C@H]3O)[C@H]3COC(=O)[C@H]23)OCO4)cc(OC)c1O [ETOPOSIDE] |  |  |  |  |  | 40500 |  | 110 |  |  |  |  |  |  |  |  |  |  | 
7 | OC(c1cc(C(F)(F)F)nc2c(C(F)(F)F)cccc12)C1CCCCN1 (stereo not drawn) [MEFLOQUINE] |  |  |  |  |  |  |  |  |  |  |  |  |  | 65 |  |  |  |  | 
8 | Cn1cc2c3cc(F)ccc3nc-2c2cc(Cl)ccc21 | 4.04 | 14.1 | 24.4 | 22.8 | 22.9 | 810 | 9.48 | 740 | 7.9 | 0.43 | 288 | 166 | 177 | 176 |  |  |  |  | 
9 | Cn1cc2c3cc(Br)ccc3nc-2c2cc(F)ccc21 | 122 | 650 | 1020 | 921 | 577 | 3650 | 15 | 880 | 13.2 | 8.14 | 188 | 119 | 132 | 211 |  |  |  |  | 
10 | Cn1cc2c3cc(Br)ccc3nc-2c2ccc(F)cc21 | 26.3 | 425 | 693 | 284 | 317 | 7410 | 10.2 | 1260 | 7.97 | 2.58 | 61.8 | 37.9 | 92.4 | 83 |  |  |  |  | 
11 | C=C[C@H]1CN2CC[C@H]1C[C@H]2[C@H](O)c1ccnc2ccc(OC)cc12 [QUININE] |  |  |  |  |  |  |  |  |  |  | 113 | 80 | 199 | 431 |  |  |  |  | 
12 | Cn1cc2c3ccc4ccccc4c3nc-2c2cc(Cl)ccc21 | 2.62 | 24.1 | 33.6 | 34.3 | 36.3 | 760 | 1.55 | 1550 | 1.2 | 2.96 | 190 | 136 | 134 | 126 |  |  |  |  | 
13 | Cn1cc2c3cc(Br)ccc3nc-2c2cc(Cl)cc(F)c21 | > 138 | > 101 | > 181 | > 97.9 | > 98.2 | 8760 | 11.4 | 55700 |  | >12.07 | 1360 | 758 | 1400 | 1400 |  | 34 |  |  | 
14 | Cn1cc2c3cc(Br)ccc3nc-2c2cccc(F)c21 | 15.3 | 51.8 | 86.1 | 63 | 65.2 | 3220 | 4.48 | 1090 | 6.17 | 3.42 | 296 | 178 | 243 | 235 |  |  |  |  | 
15 | Cc1cc(Br)cc2c3cn(C)c4ccc(Cl)cc4c-3nc12 | 5.43 | 37.8 | 57.7 | 59.2 | 63.2 | 1390 | 6.15 | 1170 | 2.34 | 0.89 | 145 | 95 | 92.6 | 86.7 |  |  |  |  | 
16 | Cn1cc2c3cc(Br)ccc3nc-2c2cc(C(F)(F)F)ccc21 | > 132 | > 96.4 | > 228 | > 108 | > 142 | 75600 | 7.44 | 35000 | 105 | >17.72 | 1370 | 579 | 1220 | 929 |  |  | 35.85 |  | 
17 | Cn1cc2c3ccccc3nc-2c2ccccc21 [ISOCRYPTOLEPINE] | 8.35 | 10.7 | 14.3 | 20.4 | 18 | 730 | 1.81 | 730 | 1.21 | 4.62 |  | 585 | 410 | 463 |  |  |  |  | 
18 | COc1ccc2nc3c4cc(Cl)ccc4n(C)cc-3c2c1 | 3.1 | 7.52 | 13.5 | 13.8 | 13.7 | 2190 | 10.4 | 2900 | 6.98 | 0.28 | 380 | 211 | 207 | 209 |  |  |  |  | 
19 | Cn1cc2c3cc(Br)ccc3nc-2c2cc(OC(F)(F)F)ccc21 | 86.6 | 1280 | 1500 | 799 | 804 | 8200 | 7.01 | 2600 | 8.46 | 12.36 | 67.9 | 57.7 | 108 | 108 |  |  |  |  | 
20 | COc1cccc2c1C(=O)c1c(O)c3c(c(O)c1C2=O)C[C@@](O)(C(=O)CO)C[C@@H]3O[C@H]1C[C@H](N)[C@H](O)[C@H](C)O1 [DOXORUBICIN] | > 92 |  |  |  |  | 400 | 2.39 |  |  |  |  |  |  |  |  |  |  | 37.13 | 
21 | C[C@H]1[C@H](OC(=O)CCC(=O)O)O[C@@H]2O[C@@]3(C)CC[C@H]4[C@H](C)CC[C@@H]1[C@@]24OO3 [ARTESUNATE] |  |  |  |  |  |  |  |  |  |  | 3.5 | 4.2 | 10 | 4.1 |  |  |  |  | 
22 | Cn1cc2c3cc(Br)ccc3nc-2c2cc(F)cc(Cl)c21 | 108 |  |  |  |  | 3470 | 8 |  | 35.9 | 13.5 | > 2000 | > 2000 | > 2000 | > 2000 |  |  |  |  | 
23 | Cn1cc2c3cc(Br)ccc3nc-2c2cccc(Cl)c21 | 3.15 |  |  |  |  | 2550 | 4.92 | 780 | 5.5 | 0.64 | > 2000 | > 2000 | > 2000 | > 2000 |  |  |  |  | 
24 | Cn1cc2c3cc(Br)ccc3nc-2c2cc(Cl)ccc21 | > 145 | > 623 | > 796 | > 893 | > 845 | 4830 | 30.8 | 750 | 7.03 | >4.7 | 232 | 182 | 162 | 171 |  |  |  |  | 40.45
